This note sets out measurements from patent US4788304A, “Phospholipase A2 inhibitors” (American Home Products Corporation, priority 1987, dated 1988).

In test [1] the test system is synthesis of the arachidonic acid cyclooxygenase oxidation product TxB2. The test is described as follows: Inhibition of TxB2 synthesis (cyclooxygenase product) by rat polymorphonuclear leukocytes. The format is cell-based, rat (female Wistar). The following applies: Leukocyte, A23187-stimulated rat PMN.
A further test has as its target T1, human platelet PLA2 (Homo sapiens, UniProt P14555).
T1 construct: The PLA2 enriched supernatant fluid is removed and the amount of protein is determined by the Lowry method; from tissue; host or cells: expired human platelets from the blood bank (acid extract, not purified)
T1 sequence (P14555 21-144): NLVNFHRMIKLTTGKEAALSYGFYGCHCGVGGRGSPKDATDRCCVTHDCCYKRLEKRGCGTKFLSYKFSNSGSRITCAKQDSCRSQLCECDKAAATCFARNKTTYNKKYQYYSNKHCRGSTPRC
In words: Inhibition of cell free human platelet PLA2 (hydrolysis of [3H]-AA labelled E. coli phospholipids). The format is biochemical. The following applies: 30 min. As to the method:
The ability of the compounds in the scope of the invention to inhibit the activity of cell free human platelet PLA2 enzyme is measured in the following in vitro assay.
E. coli, cultured to exponential growth, are sedimented for 15 minutes at 10,000 g and resuspended in sterile isotonic saline (1-3 ml). 10-25 μCi uniformly labeled [^3 H]-arachidonic acid (AA) is added to a sterile flask, evaporated by N2 and resolubilized with 0.3 ml 20% fatty acid-free bovine serum albumen (BSA). 75-100 ml of nutrient broth and 1 ml E. coli are then added to each flask and incubated for 2-3 hours at 37° C. [^3 H]-AA labelled E. coli are then sedimented, suspended in saline and added to fresh nutrient broth and incubated for 1.5 hours at 37° C. to complete [^3 H]-AA incorporation into the phospholipids. After overnight refrigeration of cultures, E. coli are again sedimented, suspended in saline and autoclaved for 15 minutes at 120° C. E. coli cultures are washed twice with saline (first wash contains 1 % BSA) and resuspended in saline. Non-labelled E. coli cultures are also prepared in the same manner. Cell number is determined by measuring the optical density at […] (3×10 cell/ml=1 O.D.). The amount of radioactivity associated with cells is determined by counting a defined volume of cell suspension. The specific activity is subsequently adjusted by adding non-labelled E. coli to yield 2-4×10 cpm per 1×10^10 E. coli.
Expired human platelets from the blood bank are centrifuged for 15 minutes at 200 g to obtain a platelet rich fraction and to remove the red blood cells. Platelets are sedimented for 15 minutes at 2500 g and the plasma is removed before adding cold 0.18N H2 SO4 (4 ml/unit). Platelets are homogenized, incubated for 1 hour at 4° C., homogenized again and centrifuged for 15 minutes at 10,000 g. The PLA2 enriched supernatant fluid is removed and the amount of protein is determined by the Lowry method. The preparation is divided into various portions and stored at -20° C.
The assay measures the hydrolysis of E. coli membrane phospholipids and the release of free [^3 H]-AA from the C-2 position of phospholipids by human platelet PLA2. To ice cold 15×100 mm test tubes, the following additions are made; 2.5×10^8 E. coli (equivalent to 5 nmol phospholipid), 5 mM Ca++, 100 mM Tris buffer (pH=7.4), 100 μg platelet extract (or an amount to produce 20-30% hydrolysis), drug or vehicle. Incubation are carried out at 37° C. in a shaking water bath for 30 minutes. The reaction is terminated by the addition of 2 volumes of tetrahydrofuran (THF) and the mixture is vortexed. Hydrolyzed [^3 H]-AA is separated from unhydrolyzed phospholipid by solid phase extraction using Bond elute NH2 columns (Analytichem Intermat.). Columns are conditioned with 0.5 ml THF followed by 0.5 ml THF:H2 O (2.0:0.1 ml v/v). Samples are loaded onto columns and hydrolyzed [^3 H]-AA is eluted with 1 ml THF:glacial acetic acid (98.0:2.0 ml v/v). The elutant is transferred to vials, 10 ml Optifluor is added and the radioactivity is determined by liquid scintillation counting.
Treatments are corrected for non-enzymatic hydrolysis by subtracting the dpms in treatments containing no enzyme. Mean [^3 H]-AA dpm is determined and a percent inhibition relative to vehicle treated samples is calculated.
The percent hydrolysis is calculated by the following equation: [formula]

In test [2] the test system is bronchospasm induced in guinea pigs by endogenous mediators of the bronchoconstriction. The test is described as follows: Ovalbumin-induced bronchospasm in guinea pigs. It is filed as in vivo, guinea pig (Hartley). Particulars: Cavia porcellus; intraduodenally administered, 10 minutes before intravenously administered ovalbumin challenge. As to the method: The assay of this Example measures the in vivo ability of the compounds in the scope of the invention to inhibit the bronchospasm induced in guinea pigs by endogenous mediators of the bronchoconstriction.
Male Hartley strain guinea pigs weighing 250-350 g are sensitized to chicken ovalbumin (OA) (10 mg i.p.) on days 1 and 3 and used starting on day 26. The animals are anesthetized with pentobarbital sodium (50 mg/kg, i.p.), bilateral vagotomy is performed, and the jugular vein is cannulated for injection of drugs and the carotid artery for monitoring blood pressure. The trachea is cannulated for artificial ventilation by miniature Starling pump and for indirect measurement of respiratory volume changes as described, infra. Succinylcholine (2 mg/kg, i.v.) is administered to arrest spontaneous respiration. […]
Respiratory volume changes are determined by a calibrated piston whose travel is recorded, via a linear transducer, on a Beckman Dynograph recorder. Maximal bronchoconstrictor volume is determined by clamping off the trachea at the end of the experiment. Overflow volumes at minutes 1, 3 and 5 are obtained from the recorded charts.
Area under the volume overflow curve (AUC) is estimated, using the overflow values at 1, 3 and 5 minutes, and expressed as a percentage of the maximal overflow AUC (equation 1): [formula] […]

The subject of test [3] is AA-induced mouse ear edema. The test is described as follows: Arachidonic acid (AA)-induced murine ear edema test. The format is in vivo, mouse (Swiss Webster). Particulars: 1 mg/ear, 30 min prior to AA, measured 1 h after AA.

On to `COC(=O)C1(C(=O)CCCCOc2ccc(Cl)cc2)CO1` (centres unmarked) [Example 6A, 2-[5-(4-Chlorophenoxy)-1-oxopentyl]-2-oxiranecarboxylic acid methyl ester], for which, in test [1], testing at 10 µM gave an inhibition of 30%. The inhibition at 50 µM on human platelet PLA2 (at 50 μM, pH 7.4, 37° C.) came to 83.2%. For the same molecule, the half-maximal inhibitory concentration (IC50) on human platelet PLA2 (cell free human platelet PLA2, pH 7.4, 37° C., read-out: IC50 (PLA2)) stood at 10.7 µM. The molecule also yielded an ED50 in test [2] of 13.5 mg/kg. The “Mouse Ear Edema Assay, % Change from Control, TOPICAL, AA” value in test [3] is reported as -38%.
